From patent publication US10844069B2, “Pyrrolotriazine compounds as TAM inhibitors” (Incyte Corporation, priority 2016, dated 2020) come the findings set out here.

Each structure is given as a SMILES string. A value given as a limit tells only on which side of the number the result lay.

One assay addresses Axl (Homo sapiens (Human), UniProt P30530). Put plainly: TAM Enzymatic Assay (HTRF), phosphor-Axl. Format: biochemical. As for the experimental part:
Autophosphorylation of Axl was carried out by incubating the recombinant Axl protein (Life Technologies, PV4275) in buffer containing 50 mM Tris, pH7.5, 0.2 mg/ml Axl, 5 mM ATP, 20 mM MgCl2 and 2 mM DTT at room temperature for 1 hour.
(§1) The kinase assay buffer contained 50 mM HEPES, pH7.5, 10 mM MgCl2, 1 mM EGTA, 0.01% NP-40 and 2 mM DTT. 0.1 ul test compounds dissolved in DMSO were transferred from compound plates to white 384-well assay plates (Greiner […] plates). […] 4 ul enzyme solution (or assay buffer for the enzyme blank) was added to the appropriate wells in each plate, and then 4 ul/well substrate solution was added to initiate the reaction. The plate was protected from light and incubated at room temperature for 60 min. […] The plate was incubated for 1 h at room temperature, and HTRF (homogenous time resolved fluorescence) signal was measured on a PHERAstar FS plate reader (BMG labtech). Percentage of inhibition was calculated for each concentration and IC50 value was generated from curve fitting with GraphPad Prism software.

Another assay has as its target Tyro3 (Homo sapiens (Human), UniProt Q06418). Put plainly: TAM Enzymatic Assay (HTRF), Tyro3. The format is biochemical. As for the experimental part:
as §1

Tyro3, sequence (Q06418 41-890): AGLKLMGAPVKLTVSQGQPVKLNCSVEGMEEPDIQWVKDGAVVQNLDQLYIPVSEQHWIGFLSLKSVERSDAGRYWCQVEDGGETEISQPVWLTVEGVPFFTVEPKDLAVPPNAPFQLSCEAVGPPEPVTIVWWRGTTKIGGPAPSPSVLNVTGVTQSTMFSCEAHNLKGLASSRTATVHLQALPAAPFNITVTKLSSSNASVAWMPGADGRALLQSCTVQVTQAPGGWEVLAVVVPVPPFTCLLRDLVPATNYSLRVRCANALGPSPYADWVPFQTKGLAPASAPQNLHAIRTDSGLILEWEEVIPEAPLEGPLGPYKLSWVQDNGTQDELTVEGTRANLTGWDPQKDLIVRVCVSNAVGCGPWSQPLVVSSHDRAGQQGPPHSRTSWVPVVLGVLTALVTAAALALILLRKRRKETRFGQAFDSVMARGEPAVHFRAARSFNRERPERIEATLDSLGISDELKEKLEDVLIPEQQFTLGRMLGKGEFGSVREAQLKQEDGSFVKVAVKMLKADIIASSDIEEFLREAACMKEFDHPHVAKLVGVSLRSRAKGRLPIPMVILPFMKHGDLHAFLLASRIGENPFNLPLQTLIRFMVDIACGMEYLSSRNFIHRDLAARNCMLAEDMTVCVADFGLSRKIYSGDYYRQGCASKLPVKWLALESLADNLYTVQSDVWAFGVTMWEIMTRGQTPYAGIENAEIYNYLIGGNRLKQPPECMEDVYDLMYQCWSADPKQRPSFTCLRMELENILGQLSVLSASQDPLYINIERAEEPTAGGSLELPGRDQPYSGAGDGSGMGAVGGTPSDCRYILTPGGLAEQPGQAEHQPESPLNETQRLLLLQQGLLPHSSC
Axl, sequence (P30530 26-894): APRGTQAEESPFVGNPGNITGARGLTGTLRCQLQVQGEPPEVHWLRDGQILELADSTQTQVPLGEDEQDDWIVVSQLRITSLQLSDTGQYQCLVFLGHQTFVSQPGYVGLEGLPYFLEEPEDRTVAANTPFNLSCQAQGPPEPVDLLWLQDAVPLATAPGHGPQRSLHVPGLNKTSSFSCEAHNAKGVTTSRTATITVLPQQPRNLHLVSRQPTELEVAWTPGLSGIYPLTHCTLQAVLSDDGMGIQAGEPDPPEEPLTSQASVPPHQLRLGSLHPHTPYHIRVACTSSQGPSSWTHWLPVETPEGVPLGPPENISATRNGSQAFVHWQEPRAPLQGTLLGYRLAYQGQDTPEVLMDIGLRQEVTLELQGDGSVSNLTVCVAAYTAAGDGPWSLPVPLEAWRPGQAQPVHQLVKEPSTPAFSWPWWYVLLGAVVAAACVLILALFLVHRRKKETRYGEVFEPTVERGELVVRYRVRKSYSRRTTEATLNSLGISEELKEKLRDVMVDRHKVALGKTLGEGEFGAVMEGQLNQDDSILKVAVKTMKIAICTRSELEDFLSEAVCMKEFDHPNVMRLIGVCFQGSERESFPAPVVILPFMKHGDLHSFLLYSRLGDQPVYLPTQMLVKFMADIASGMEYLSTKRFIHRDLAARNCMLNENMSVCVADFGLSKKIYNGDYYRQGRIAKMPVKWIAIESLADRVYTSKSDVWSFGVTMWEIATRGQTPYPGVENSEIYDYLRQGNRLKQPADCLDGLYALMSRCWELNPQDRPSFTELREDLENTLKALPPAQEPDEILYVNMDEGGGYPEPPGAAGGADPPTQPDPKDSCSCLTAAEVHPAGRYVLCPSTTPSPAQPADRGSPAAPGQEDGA

As for `Cc1cn(C)nc1-n1c(=O)c(C(=O)Nc2ccc(-c3cc(C4CCN(C(=O)C(C)C)CC4)n4ncnc(N)c34)cc2)cn(C(C)C)c1=O` [Example 138, N-(4-(4-Amino-7-(1-isobutyrylpiperidin-4-yl)pyrrolo[2,1-f][1,2,4]triazin-5-yl)phenyl)-3-(1,4-dimethyl-1H-pyrazol-3-yl)-1-isopropyl-2,4-dioxo-1,2,3,4-tetrahydropyrimidine-5-carboxamide], the 50% inhibitory concentration (IC50) against Axl was under 5 nM; against Tyro3, over 100 nM.
